Usually EC50 stands for the concentration giving half of the maximal effect.

Structures are written as SMILES.

The nature of assay [1]: Potency index, ratio of compound activity for modulation of rat GABAA alpha1beta2gamma2S receptor assessed as EC3 to 10 GABA-induced chloride ion current to triazolam activity for modulation of GABAA alpha1beta2gamma2S receptor (unknown origin) assessed as potentiation of EC5 to 10 GABA-induced chloride ion current.
The target of assay [2] is GABA-A receptor; alpha-1/beta-3/gamma-2 (Homo sapiens) (UniProt P14867+P18507+P28472). The assay can be described thus: Modulation of GABAA alpha1beta3gamma2S receptor (unknown origin) expressed in Xenopus laevis oocytes assessed as potentiation of EC3 to 10 GABA-induced chloride ion current at holding potential -70 mV 1 to 300 uM by two-microelectrode voltage clamp assay relative to GABA-treated control. It is filed as cell-based.

The species entered for assay [3] is Homo sapiens. The assay can be described thus: Modulation of GABAA alpha1beta1gamma2S receptor (unknown origin) expressed in Xenopus laevis oocytes assessed as potentiation of EC3 to 10 GABA-induced chloride ion current at holding potential -70 mV at 1 to 300 uM by two-microelectrode voltage clamp assay relative to GABA-treated control. It is filed as cell-based.

Assay [4] concerns the target GABA A receptor alpha-2/beta-2/gamma-2 (Homo sapiens) (UniProt P47870+P18507+P47869). The assay is described as follows: Modulation of GABAA alpha2beta2gamma2S receptor (unknown origin) expressed in Xenopus laevis oocytes assessed as potentiation of EC3 to 10 GABA-induced chloride ion current at holding potential -70 mV at 1 to 300 uM by two-microelectrode voltage clamp assay relative to GABA-treated control. It is filed as cell-based.

The nature of assay [5]: Modulation of GABAA alpha1beta1gamma2S receptor (unknown origin) expressed in Xenopus laevis oocytes assessed as potentiation of EC3 to 10 GABA-induced chloride ion current at holding potential -70 mV by two-microelectrode voltage clamp assay. It is filed as cell-based. The following applies: Homo sapiens.
Assay [6] in a line: Modulation of GABAA alpha4beta2gamma2S receptor (unknown origin) expressed in Xenopus laevis oocytes assessed as potentiation of EC3 to 10 GABA-induced chloride ion current at holding potential -70 mV by two-microelectrode voltage clamp assay. The following applies: Homo sapiens. It is filed as cell-based.
For assay [7], the target named is T1, GABA A receptor alpha-3/beta-2/gamma-2 (Homo sapiens, UniProt P18507+P34903+P47870).
T1 sequence (P47870 whole entry): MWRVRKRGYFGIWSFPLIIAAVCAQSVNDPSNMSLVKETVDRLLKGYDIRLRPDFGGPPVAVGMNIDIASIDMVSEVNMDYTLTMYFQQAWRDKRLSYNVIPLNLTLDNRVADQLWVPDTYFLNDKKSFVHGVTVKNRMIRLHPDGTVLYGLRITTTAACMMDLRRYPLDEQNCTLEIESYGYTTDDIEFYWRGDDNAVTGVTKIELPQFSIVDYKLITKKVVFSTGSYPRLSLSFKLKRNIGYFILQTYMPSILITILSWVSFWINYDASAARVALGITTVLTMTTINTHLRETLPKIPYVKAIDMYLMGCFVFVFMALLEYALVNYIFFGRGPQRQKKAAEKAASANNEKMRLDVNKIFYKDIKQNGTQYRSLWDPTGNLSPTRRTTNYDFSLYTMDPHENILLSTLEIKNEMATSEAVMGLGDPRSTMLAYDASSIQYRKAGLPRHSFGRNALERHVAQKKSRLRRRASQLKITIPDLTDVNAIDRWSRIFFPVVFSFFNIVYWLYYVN
T1 sequence (P18507 whole entry): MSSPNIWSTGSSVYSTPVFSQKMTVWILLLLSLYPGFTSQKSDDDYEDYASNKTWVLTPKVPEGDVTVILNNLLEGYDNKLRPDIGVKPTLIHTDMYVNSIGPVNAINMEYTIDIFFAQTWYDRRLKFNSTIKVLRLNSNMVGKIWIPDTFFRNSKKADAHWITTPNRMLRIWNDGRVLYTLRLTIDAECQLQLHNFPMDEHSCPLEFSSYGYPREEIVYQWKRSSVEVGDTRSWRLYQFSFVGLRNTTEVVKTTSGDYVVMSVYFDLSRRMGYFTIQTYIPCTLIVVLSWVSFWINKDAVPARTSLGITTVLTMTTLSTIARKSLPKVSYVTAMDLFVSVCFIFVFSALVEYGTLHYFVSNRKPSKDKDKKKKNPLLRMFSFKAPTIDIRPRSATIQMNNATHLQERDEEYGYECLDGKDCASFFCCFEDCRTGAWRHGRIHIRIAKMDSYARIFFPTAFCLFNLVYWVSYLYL
T1 sequence (P34903 whole entry): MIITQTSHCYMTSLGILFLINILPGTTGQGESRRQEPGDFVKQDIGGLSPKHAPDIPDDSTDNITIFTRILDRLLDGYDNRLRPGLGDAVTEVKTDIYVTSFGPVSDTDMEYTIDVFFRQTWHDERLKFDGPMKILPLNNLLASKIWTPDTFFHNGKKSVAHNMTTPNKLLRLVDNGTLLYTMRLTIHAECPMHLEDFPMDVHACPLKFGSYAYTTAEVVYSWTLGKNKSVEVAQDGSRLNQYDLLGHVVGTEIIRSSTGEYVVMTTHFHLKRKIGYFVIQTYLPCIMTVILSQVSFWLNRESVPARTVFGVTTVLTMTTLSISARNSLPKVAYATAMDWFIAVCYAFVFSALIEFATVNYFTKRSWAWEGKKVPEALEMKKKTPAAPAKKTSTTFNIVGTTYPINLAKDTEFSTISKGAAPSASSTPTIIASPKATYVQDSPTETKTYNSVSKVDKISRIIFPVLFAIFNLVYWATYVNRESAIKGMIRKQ
The assay is described as follows: Modulation of GABAA alpha3beta2gamma2S receptor (unknown origin) expressed in Xenopus laevis oocytes assessed as potentiation of EC3 to 10 GABA-induced chloride ion current at holding potential -70 mV by two-microelectrode voltage clamp assay. It is filed as cell-based.

Assay [8] has as its target T2, GABA A receptor alpha-2/beta-2/gamma-2 (Homo sapiens, UniProt P18507+P47869+P47870).
T2 sequence (P47870 whole entry): T1 sequence (P47870 whole entry)
T2 sequence (P18507 whole entry): T1 sequence (P18507 whole entry)
T2 sequence (P47869 whole entry): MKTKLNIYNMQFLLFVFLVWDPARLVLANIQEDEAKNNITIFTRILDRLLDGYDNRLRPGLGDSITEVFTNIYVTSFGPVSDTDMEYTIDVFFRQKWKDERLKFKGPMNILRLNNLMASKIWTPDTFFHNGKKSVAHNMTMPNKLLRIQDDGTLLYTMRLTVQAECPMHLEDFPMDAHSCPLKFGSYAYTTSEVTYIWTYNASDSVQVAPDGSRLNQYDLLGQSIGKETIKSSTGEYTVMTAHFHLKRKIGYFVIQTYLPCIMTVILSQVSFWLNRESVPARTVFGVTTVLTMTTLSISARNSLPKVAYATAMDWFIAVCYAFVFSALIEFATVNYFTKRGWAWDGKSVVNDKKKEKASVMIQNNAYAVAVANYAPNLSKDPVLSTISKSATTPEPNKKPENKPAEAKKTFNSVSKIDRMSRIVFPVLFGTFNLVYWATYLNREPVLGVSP
The assay is described as follows: Modulation of GABAA alpha2beta2gamma2S receptor (unknown origin) expressed in Xenopus laevis oocytes assessed as potentiation of EC3 to 10 GABA-induced chloride ion current at holding potential -70 mV by two-microelectrode voltage clamp assay. It is filed as cell-based.

In the case of `COc1cc(O)cc(CCc2cccc(O)c2)c1` [BATATASIN III], the Ratio in assay [1] was 4. In addition, the Imax in assay [2] was found to be 1250%; in assay [3], 1250%; in assay [4] it was 1030%. Moreover, the concentration giving a half-maximal response (EC50) is 66.7 µM in assay [5], 26.2 µM in assay [6], 67.3 µM in assay [7] and 80.8 µM in assay [8].

(Values after ChEMBL document CHEMBL3112517, “Identification of dihydrostilbenes in Pholidota chinensis as a new scaffold for GABAA receptor modulators” (Bioorg Med Chem, 2014).)
